# Earlier results, collected in patent US9597377B2, “Stable formulations of purified proteins” (MOUNT SINAI SCHOOL OF MEDICINE OF NEW YORK UNIVERSITY, priority 2003, dated 2017).
# Changes are numbered by the printed parent chain.
# Columns and labels:
# mutant α-Gal A (R301Q) = target: T1, mutant α-Gal A (R301Q) (Homo sapiens, UniProt P06280, R301Q); conditions: neutral pH; cited from earlier work
# T1 sequence (P06280 32-429 R301Q): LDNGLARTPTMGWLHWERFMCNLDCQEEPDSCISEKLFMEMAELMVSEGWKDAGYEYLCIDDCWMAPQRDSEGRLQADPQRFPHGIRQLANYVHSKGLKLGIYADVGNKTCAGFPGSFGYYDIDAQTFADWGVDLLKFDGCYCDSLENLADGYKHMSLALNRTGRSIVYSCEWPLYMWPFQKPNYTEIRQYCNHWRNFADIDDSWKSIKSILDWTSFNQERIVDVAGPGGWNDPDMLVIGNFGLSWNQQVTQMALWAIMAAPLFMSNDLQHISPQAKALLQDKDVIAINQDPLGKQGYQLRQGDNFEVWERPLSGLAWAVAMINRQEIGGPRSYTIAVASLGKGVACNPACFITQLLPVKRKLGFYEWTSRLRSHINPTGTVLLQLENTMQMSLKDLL
# [1] = test system: lymphoblasts established from Fabry patients with R301Q or Q279E mutations; conditions: cited from earlier work
# mutant (R301Q) α-Gal A = target: T2, mutant (R301Q) α-Gal A (Homo sapiens, UniProt P06280, R301Q); conditions: oral administration, transgenic mice overexpressing mutant (R301Q) α-Gal A; cited from earlier work
# T2 construct: host or cells: transgenic mice overexpressing the mutant enzyme; activity measured in major organs
# T2 sequence (P06280 32-429 R301Q): T1 sequence (P06280 32-429 R301Q)
# [2] = target: T3, wild-type α-Gal A in COS-7 cells (Homo sapiens, UniProt P06280); conditions: COS-7 cells transfected with vector coding wild-type α-Gal A; cited from earlier work
# T3 construct: expressed in transfected cells; host or cells: COS-7 cells
# T3 sequence (P06280 32-429): T1 sequence (P06280 32-429 R301Q) with Q270R
smiles,measurement,setting,value
"OC[C@H]1NC[C@H](O)[C@@H](O)[C@H]1O [DGJ, 1-deoxygalactonojirimycin]",in vitro stability of mutant α-Gal A (R301Q),mutant α-Gal A (R301Q),effectively increased in vitro stability
same,mutant enzyme activity in lymphoblasts,[1],enhanced the mutant enzyme activity
same,enzyme activity in major organs,mutant (R301Q) α-Gal A,substantially elevated the enzyme activity
same,amount and activity of wild-type α-Gal A,[2],increase the amount and activity
